Converted amounts (≈) assume the structure as drawn.
Assays:
E. faecalis VSE 1 = experiment: MIC, broth microdilution, vancomycin-sensitive E. faecalis (VSE 1); assay type: cell-based, Enterococcus faecalis; conditions: for MIC: Enterococcus faecalis VSE 1 (vancomycin-sensitive), read-out: MIC; for MIC-fold improvement vs. vancomycin: VSE 1, ratio of MIC of vancomycin and MIC of analogue
Experimental: (§1) The minimum inhibitory concentration (MIC) was determined using the broth microdilution method according to the antimicrobial susceptibility testing standards of the clinical and laboratory standards institute ([Clinical and Laboratory Standards Institute [CLSI], 2012]). Ultrapure water and non-inoculated broth were used as controls. In one case, a final concentration of 10 μM vancomycin was included with the vancomycin analog or control antibiotic.

E. faecalis VRE 6 = experiment: MIC, broth microdilution, vancomycin-resistant E. faecalis VRE 6 (VanA); assay type: cell-based, Enterococcus faecalis; conditions: for MIC: Enterococcus faecalis VRE 6 (vancomycin-resistant), read-out: MIC; for MIC-fold improvement vs. vancomycin: VRE 6, ratio of MIC of vancomycin and MIC of analogue
Experimental: as §1

E. faecalis VRE 53 = experiment: MIC, broth microdilution, vancomycin-resistant E. faecalis VRE 53 (VanA); assay type: cell-based, Enterococcus faecalis; conditions: for MIC: Enterococcus faecalis VRE 53 (vancomycin-resistant), read-out: MIC; for MIC-fold improvement vs. vancomycin: VRE 53, ratio of MIC of vancomycin and MIC of analogue
Experimental: as §1

E. faecalis VRE 29 = experiment: MIC, broth microdilution, vancomycin-resistant E. faecalis VRE 29 (VanA); assay type: cell-based, Enterococcus faecalis; conditions: for MIC: Enterococcus faecalis VRE 29 (vancomycin-resistant), read-out: MIC; for MIC-fold improvement vs. vancomycin: VRE 29, ratio of MIC of vancomycin and MIC of analogue
Experimental: as §1

E. faecalis VRE 37 = experiment: MIC, broth microdilution, vancomycin-resistant E. faecalis VRE 37 (VanA); assay type: cell-based, Enterococcus faecalis; conditions: for MIC: Enterococcus faecalis VRE 37 (vancomycin-resistant), read-out: MIC
Experimental: as §1

[1] = system: Murine leukemia (L1210) cells; experiment: Cytostatic activity, L1210 cell proliferation; assay type: cell-based; conditions: mean ± SD of three experiments; highest concentration tested 250 µM; 2 days; read-out: Toxicity (IC50) L1210
Experimental: (§2) Murine leukemia (L1210), human T-lymphocyte (CEM) and the human cervix carcinoma (HeLa) cell line were suspended at 300,000–500,000 cells/mL of culture medium, and 100 μL of a cell suspension was added to 100 μL of an appropriate dilution of the test compounds in wells of 96-well microtiter plates. After incubation at 37°C for 2 (L1210), 3 (CEM), or 4 (HeLa) days, the cell number was determined using a Coulter counter. The IC50 was defined per cell type as the compound concentration required to inhibit cell proliferation by 50% compared to the negative control ([Glowacka et al., 2017]).

[2] = system: human T-lymphocyte (CEM) cells; experiment: Cytostatic activity, CEM cell proliferation; assay type: cell-based; conditions: mean ± SD of three experiments; highest concentration tested 250 µM; 3 days; read-out: Toxicity (IC50) CEM
Experimental: as §2

[3] = system: human cervix carcinoma (HeLa) cells; experiment: Cytostatic activity, HeLa cell proliferation; assay type: cell-based; conditions: mean ± SD of three experiments; highest concentration tested 250 µM; 4 days; read-out: Toxicity (IC50) HeLa
Experimental: as §2

[4] = system: L1210, CEM and HeLa cell lines; experiment: Cytostatic activity, average or summary over L1210, CEM and HeLa; assay type: cell-based; conditions: average of L1210, CEM and HeLa; read-out: Toxicity (IC50) Average
Experimental: as §2

[5] = system: S. aureus VSSA (ATCC 6538); experiment: MIC, broth microdilution, vancomycin-sensitive S. aureus (VSSA/MSSA, ATCC 6538); assay type: cell-based, Staphylococcus aureus; conditions: for MIC: Staphylococcus aureus VSSA, read-out: MIC; for MIC-fold improvement vs. vancomycin: VSSA, ratio of MIC of vancomycin and MIC of analogue
Experimental: as §1

S. aureus VISA/HIP5827 = experiment: MIC, broth microdilution, vancomycin-intermediate S. aureus VISA HIP5827; assay type: cell-based, Staphylococcus aureus; conditions: for MIC: Staphylococcus aureus VISA/HIP5827, read-out: MIC; for MIC-fold improvement vs. vancomycin: VISA/HIP5827, ratio of MIC of vancomycin and MIC of analogue
Experimental: as §1

S. aureus VRSA = experiment: MIC, broth microdilution, vancomycin-resistant S. aureus (VRSA); assay type: cell-based, Staphylococcus aureus; conditions: for MIC: Staphylococcus aureus VRSA, read-out: MIC; for MIC-fold improvement vs. vancomycin: VRSA, ratio of MIC of vancomycin and MIC of analogue
Experimental: as §1

MRSA KS2 = experiment: MIC, broth microdilution, MRSA KS2; assay type: cell-based, Staphylococcus aureus; conditions: for MIC-fold improvement vs. vancomycin: MRSA KS2, ratio of MIC of vancomycin and MIC of analogue; for MIC: Staphylococcus aureus MRSA KS2, read-out: MIC
Experimental: as §1

MRSA KS6 = experiment: MIC, broth microdilution, MRSA KS6; assay type: cell-based, Staphylococcus aureus; conditions: for MIC-fold improvement vs. vancomycin: MRSA KS6, ratio of MIC of vancomycin and MIC of analogue; for MIC: Staphylococcus aureus MRSA KS6, read-out: MIC
Experimental: as §1

MRSA KS89 = experiment: MIC, broth microdilution, MRSA KS89; assay type: cell-based, Staphylococcus aureus; conditions: for MIC-fold improvement vs. vancomycin: MRSA KS8, ratio of MIC of vancomycin and MIC of analogue; for MIC: Staphylococcus aureus MRSA KS8, read-out: MIC
Experimental: as §1

MRSA KS1 = experiment: MIC, broth microdilution, MRSA KS1; assay type: cell-based, Staphylococcus aureus; conditions: for MIC-fold improvement vs. vancomycin: MRSA KS1, ratio of MIC of vancomycin and MIC of analogue; for MIC: Staphylococcus aureus MRSA KS1, read-out: MIC
Experimental: as §1

| MIC (E. faecalis VSE 1) | MIC-fold improvement vs. vancomycin (E. faecalis VSE 1) | MIC (E. faecalis VRE 6) | MIC-fold improvement vs. vancomycin (E. faecalis VRE 6) | MIC (E. faecalis VRE 53) | MIC-fold improvement vs. vancomycin (E. faecalis VRE 53) | MIC (E. faecalis VRE 29) | MIC-fold improvement vs. vancomycin (E. faecalis VRE 29) | MIC (E. faecalis VRE 37) | MIC [5] | MIC-fold improvement vs. vancomycin [5] | MIC (S. aureus VISA/HIP5827) | MIC-fold improvement vs. vancomycin (S. aureus VISA/HIP5827) | MIC (S. aureus VRSA) | MIC-fold improvement vs. vancomycin (S. aureus VRSA) | MIC-fold improvement vs. vancomycin (MRSA KS2) | Compound | IC50 [1] | IC50 [2] | IC50 [3] | IC50 [4] | other results |
| --- | --- | --- | --- | --- | --- | --- | --- | --- | --- | --- | --- | --- | --- | --- | --- | --- | --- | --- | --- | --- | --- |
| 0.78 µM (≈ 1.25 µg/mL) | 2 | 25 µM (≈ 39.9 µg/mL) | 8 | 25 µM (≈ 39.9 µg/mL) | 16 | >50 µM | <8 | 50 µM (≈ 79.9 µg/mL) | 0.78 µM (≈ 1.25 µg/mL) | 1 | 0.78 µM (≈ 1.25 µg/mL) | 8 | 25 µM (≈ 39.9 µg/mL) | 4 | 1 | CNC(CC(C)C)C(=O)NC1C(=O)NC(CC(N)=O)C(=O)NC2C(=O)NC3C(=O)NC(C(=O)NC(C(=O)NCC(=O)Nc4ccc(O)cc4)c4cc(O)cc(O)c4-c4cc3ccc4O)C(O)c3ccc(c(Cl)c3)Oc3cc2cc(c3OC2OC(CO)C(O)C(O)C2OC2CC(C)(N)C(O)C(C)O2)Oc2ccc(cc2Cl)C1O (stereo not shown) [Vanc-1] | > 250 µM | > 250 µM | 72 ± 10 µM | 191 µM | MIC-fold improvement vs. vancomycin (E. faecalis VRE 37; VRE 37, ratio of MIC of vancomycin and MIC of analogue): 16; MIC (MRSA KS2): 0.78 µM (≈ 1.25 µg/mL); MIC-fold improvement vs. vancomycin (MRSA KS6): 1; MIC (MRSA KS6): 0.78 µM (≈ 1.25 µg/mL); MIC-fold improvement vs. vancomycin (MRSA KS89): 1; MIC (MRSA KS89): 0.78 µM (≈ 1.25 µg/mL); MIC-fold improvement vs. vancomycin (MRSA KS1): 1; MIC (MRSA KS1): 0.78 µM (≈ 1.25 µg/mL) |
| 0.39 µM (≈ 0.636 µg/mL) | 4 | 12.5 µM (≈ 20.4 µg/mL) | 16 | 25 µM (≈ 40.7 µg/mL) | 16 | 12.5 µM (≈ 20.4 µg/mL) | 32 | 25 µM (≈ 40.7 µg/mL) | 0.78 µM (≈ 1.27 µg/mL) | 1 | 0.78 µM (≈ 1.27 µg/mL) | 8 | 12.5 µM (≈ 20.4 µg/mL) | 8 | 2 | CN[C@H](CC(C)C)C(=O)N[C@H]1C(=O)N[C@@H](CC(N)=O)C(=O)N[C@H]2C(=O)N[C@H]3C(=O)N[C@H](C(=O)N[C@H](C(=O)NCC(=O)Nc4ccc(C)cc4Cl)c4cc(O)cc(O)c4-c4cc3ccc4O)[C@H](O)c3ccc(c(Cl)c3)Oc3cc2cc(c3O[C@@H]2O[C@H](CO)[C@@H](O)[C@H](O)[C@H]2O[C@H]2C[C@](C)(N)[C@H](O)[C@H](C)O2)Oc2ccc(cc2Cl)[C@H]1O [Vanc-2] | > 250 µM | > 250 µM | 158 ± 84 µM | 219 µM | MIC (MRSA KS2): 0.39 µM (≈ 0.636 µg/mL); MIC-fold improvement vs. vancomycin (MRSA KS6): 2; MIC (MRSA KS6): 0.39 µM (≈ 0.636 µg/mL); MIC-fold improvement vs. vancomycin (MRSA KS89): 2; MIC (MRSA KS89): 0.39 µM (≈ 0.636 µg/mL); MIC-fold improvement vs. vancomycin (MRSA KS1): 2; MIC (MRSA KS1): 0.39 µM (≈ 0.636 µg/mL) |
